# Assay results: patent publication US20040097408A1, “Compounds regulating cell proliferation and differentiation” (priority 2001, published 2004)
# Several values for one entry are separate records, joined by “and”; a condition that tells them apart may be missing. Equal entries are not always repeated.
# Experiments:
# [1] = system: kidney, heart and liver samples; experiment: pathology examination of kidney, liver and heart; format: in vivo, mouse; conditions: four F16 treated and four placebo mice
# Text: All the tumors from the twenty mice as well as kidney, liver and heart samples from four placebo and four F16 treated mice were sent for pathology examination. […] Necrosis probably results from the lack of sufficient blood supply to these fast growing tumors.
# [2] = system: Myc (16MB9a, a myc tumor cell line); experiment: cell cycle phases by BrdU incorporation / FACS; format: cell-based, mouse; conditions: Myc tumor cell line (16MB9a); F16 3 μM, 30 hr
# Protocol: (§1) The percentage of cells in the different phases of the cell cycle was assessed by measuring BrdU incorporation into the DNA of the cells. BrdU incorporation into DNA of untreated or F16 treated (3 μM/30-36 hr) EpH-EV and EpH-A6 cells was assessed by FACS as follows. After F16 or mock treatment, the cells were pulsed with BrdU (20 μM) for 1 hour and then fixed in 70% ethanol at −20° C. overnight. Next morning cells were washed twice with 1×PBS and the DNA was denatured by incubation of the cells in 2N HCl/0.5% Triton X-100. The cells were then washed twice in 0.1M Na2B2O7, and once in PBS. The cells were resuspended in PBS, incubated with 20 μL of anti-BrdU/FITC(Becton Dickinson) for 1 hour and subsequently washed with 1×PBS and resuspended in PBS. RNA was digested with RNaseA (1 μL of 10 mg/mL stock) at 37° C. for 30 minutes. Finally, the cells were diluted with 1 mL of 5 μg/mL propidium iodide/PBS and incubated on ice for 15 minutes. The labeled cells were analyzed using the FACSCalibur (Becton Dickinson).
# (§2) The effect of F16 (3 μM) on BrdU incorporation into DNA of various Neu-induced, Ras-induced and Myc-induced tumor cells lines was examined using the same technique. The results, which are shown in Table 3, indicate that, except for 16MB9a, a myc tumor cell line that is not affected by F16, the other cell lines, all of which are sensitive to F16 show, as expected, a decrease in the percentage of cells in the S phase and an increase in the percentage of cells in G1 after 30 hr of incubation in medium containing F16 (3 μM). In some cases, an increase in the amount of cells in G2 phase was observed. This may reflect the heterogeneity of the tumor cells, some of which may have acquired defects in various cell cycle regulators as secondary events.
# n-Neu = experiment: cell cycle phases by BrdU incorporation / FACS; format: cell-based, mouse; conditions: F16 3 μM, 30 hr
# Protocol: as §1, §2
# NF980 = experiment: cell cycle phases by BrdU incorporation / FACS; format: cell-based, mouse; conditions: F16 3 μM, 30 hr
# Protocol: as §1, §2
# AC816 = experiment: cell cycle phases by BrdU incorporation / FACS; format: cell-based, mouse; conditions: F16 3 μM, 30 hr
# Protocol: as §1, §2
# NAF = experiment: cell cycle phases by BrdU incorporation / FACS; format: cell-based, mouse; conditions: F16 3 μM, 30 hr
# Protocol: as §1, §2
# SH1.1 = experiment: cell cycle phases by BrdU incorporation / FACS; format: cell-based, mouse; conditions: F16 3 μM, 30 hr
# Protocol: as §1, §2
# EpH4-A6 cells = experiment: anti-BrdU cytoblot assay (BrdU incorporation); format: cell-based, mouse
# Protocol: In order to look for selective inhibitors of cell proliferation dependent on Neu, a chemical library was screened using a cytoblot assay. The ability of small molecules to inhibit cell proliferation at a final concentration of […] determined by the relative incorporation of BrdU into DNA in EpH4-A6 Neu-overexpressing and EpH4-EV control cells.
# A modified version of a protocol previously described was used for the cytoblot assay (Stockwell et al. (1999) Chem Biol 6(2), 71-83). Briefly, for this cytoblot assay, 2,000 control (EpH4-EV) and Neu overexpressing (EpH4-A6) cells were seeded in 40 μL of growing medium in duplicate in each well of a white […] plate (Costar). 16,000 compounds from a chemical library (Chembridge) were transferred to each well to a final concentration of 10-15 μM. Plates were incubated at 37° C. with 5% CO2 for 36 hours. BrdU was then added to a final concentration of 20 μM and the cells were incubated at 37° C. with 5% CO2 for an additional 3 hours. Cells were then washed with PBS and fixed with 75% ethanol/25%TBS at 4° C. for 1 hour. DNA denaturation was achieved by incubation with 2M HCl/0.5% Tween-20 for 20 min, followed by neutralization with 2M NaOH in Hank's Balanced Salt Solution (HBSS). Cells were subsequently washed with HBSS, blocked with PBS/0.3% Tween-20/1% BSA (PSTB), and incubated with 0.5 μg/mL of mouse anti-BrdU antibody (PharMingen) and 1:5,000 dilution of anti-mouse IgG coupled to HRP in PBSTB for 1 hour at room temperature. Finally the cells were washed with PBS and 20 μL of 1:1 mix of the enhanced chemiluminescence reagent (Pierce) was then added to each well of a plate. In every case addition of reagents was done using a mutli-drop 384 liquid dispenser (Labsystems) and the washes using a plate washer (Bio-Tek Instruments). Chemiluminescent signal from each plate was detected by autoradiograph and multilabel counter Victor^2 (Wallac) in order to quantitate results. A control cytoblot using inhibitory anti-Neu monoclonal antibodies was performed following the same procedure with the exception that anti-Neu antibody was added to the medium at a final concentration of 20 μg/mL.
# The potency of these 55 small molecules was then evaluated at lower concentrations, i.e., at 10 μM and 1 μM using the cytoblot assay described above. […] These six compounds are referred to as E20 (ID 141525); F12 (ID 120590); F16 (ID 274873); H10 (ID 120670); J6 (ID 120856); N12 (ID 215015), and their structure is shown in FIGS. 2 A-F, respectively. […] These two compounds are referred to as L4 (ID 121113); B15(ID217496) […]. FIGS. 2 A-H also show proton NMR spectra of each of the molecules that confirmed their identity. […]
smiles,measurement,setting,value
C[n+]1ccc(/C=C/c2c[nH]c3ccccc23)cc1.[I-] [F16],"pathology of kidney, heart and liver samples versus placebo",[1],no major differences
same,With F16 % G1,[2],82.7% and 83.8%
same,With F16 % G2,[2],1.5%
same,With F16 % S,[2],12.8% and 12.7%
same,With F16 % G1,n-Neu,64.5% and 61.5%
same,With F16 % G2,n-Neu,15.4% and 17.8%
same,With F16 % S,n-Neu,18.2% and 19.6%
same,With F16 % G1,NF980,68.6% and 69.6%
same,With F16 % G2,NF980,12.4% and 8.9%
same,With F16 % S,NF980,17.3% and 17.0%
same,With F16 % G1,AC816,96.8% and 95.1%
same,With F16 % G2,AC816,2.7% and 2.8%
same,With F16 % S,AC816,0.1% and 0.2%
same,With F16 % G1,NAF,86.8%
same,With F16 % G2,NAF,3.6%
same,With F16 % S,NAF,4.7%
same,With F16 % G1,SH1.1,81.3% and 79.7%
same,With F16 % G2,SH1.1,10.4% and 13.2%
same,With F16 % S,SH1.1,7.1%
same,score in anti-BrdU cytoblot,EpH4-A6 cells; EpH4-A6 cells at 10 μM,positive
same,concentration up to which anti-proliferative activity is retained,"EpH4-A6 cells; EpH4-A6 cells, concentrations from 100 to 0.01 μM, FIG. 3",100 nM
same,concentration at which F16 is effective / partially inhibits BrdU incorporation (as low as),"EpH4-A6 cells; EpH4-A6 cells, cytoblot",10 nM
same,concentration at which anti-proliferative activity was shown (as low as),"EpH4-A6 cells; EpH4-A6 cells, cytoblot",1 µM
